Results published in patent US12527774B2, “Estrogen-related receptor alpha modulators” (LEAD PHARMA HOLDING B.V., priority 2019, dated 2026).

Target: ERRα ligand binding domain (ERRα-LBD) (Homo sapiens (Human), UniProt P11474)
Assay: ERRα AlphaScreen Assay
Format: biochemical
Conditions: disruption of binding of ERRα-LBD protein to biotin-PGC1α-3 co-activator peptide; for IC50: read-out: mean pIC50 (converted)
Excerpt: This assay was based on the knowledge that nuclear receptors interact with cofactors in a ligand dependent matter. The sites of interaction have been mapped to LXXLL motifs that are present in the co-activator sequences. Short peptide sequences that contain the LXXLL motif mimic the behavior of full length co-activators.
The ERRα AlphaScreen Assay described here relies on the interaction of the co-activator peptide with purified bacterial-expressed ERRα ligand binding domain (ERRα-LBD); upon ligand binding the ERRα protein can undergo a conformational change resulting in a loss of co-activator binding.
Compounds of the present invention were tested for their ability to disrupt binding of ERRα-LBD protein to co-activator peptide using AlphaScreen® Technology (Perkin Elmer). ERRα-LBD protein was expressed in E. coli as a 6×His Small Ubiquitin-like Modifier (SUMO) fusion. Bacterial expressed 6His-SUMO-ERRα-LBD protein was purified using affinity chromatography. All experiments were performed at room temperature in 384-well white non-binding plates (Greiner) using 50 mM Tris-HCl pH 7.5, 100 mM NaCl, 0,1% Pluronic F-127, 0.05% BSA and 5 mM TCEP as the buffer. Final DMSO concentration was 1% in the assay. Compounds were assayed in triplicate and: incubated with 0.81 nM ERRα-LBD protein and 10 μg/mL streptavidin donor beads and 10 μg/mL Ni-chelate acceptor beads for 1 hour at room temperature; followed by a 2-hour incubation with 15 nM biotin-PGC1α-3 peptide (QRRPCSELLKYLTTNDDPP) corresponding to amino acids 202 to 220.
The AlphaScreen signal was measured using an Envision Xcite plate reader (Perkin Elmer). Data was normalized, and curve fitting analysis was performed in GraphPad Prism 7 using a four-parameter dose-response fit.
As multiple IC50 values were annotated for the same compound-protein pair, a mean pIC50 for each compound was determined.

ERRα ligand binding domain (ERRα-LBD), sequence (P11474 193-421): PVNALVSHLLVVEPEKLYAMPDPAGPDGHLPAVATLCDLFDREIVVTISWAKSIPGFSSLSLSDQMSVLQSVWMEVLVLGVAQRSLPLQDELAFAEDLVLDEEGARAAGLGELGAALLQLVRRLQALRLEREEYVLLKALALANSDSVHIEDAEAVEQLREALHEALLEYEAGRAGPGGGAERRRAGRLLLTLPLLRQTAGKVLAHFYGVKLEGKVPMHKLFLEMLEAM

Row | Compound | IC50 | mean pIC50
1 | COc1cc(C2CC(=O)Nc3n[nH]cc32)ccc1OCc1ccccc1Br (stereo not shown) [Example 4, 4-{4-[(2-bromophenyl)methoxy]-3-methoxyphenyl}-2H,4H,5H,6H, 7H-pyrazolo[3,4-b]pyridin-6-one] | 10 to 100 nM | 
2 | COCCCOc1cc(C2CC(=O)Nc3n[nH]cc32)ccc1OCc1ccccc1C(F)(F)F (stereo not shown) [Example 163, 4-[3-(3-methoxypropoxy)-4-{[2-(trifluoromethyl)phenyl]methoxy}phenyl]-2H,4H,5H,6H,7H-pyrazolo[3,4-b]pyridin-6-one] | 10 to 100 nM | 
3 | CCCOC(=O)c1ccccc1COc1ccc(C2CC(=O)Nc3n[nH]cc32)cc1OC (stereo not shown) [Example 125, propyl 2-(2-methoxy-4-{6-oxo-2H,4H,5H,6H,7H-pyrazolo[3,4-b]pyridin-4-yl}phenoxymethyl)benzoate] | 100 to 1000 nM | 
4 | COc1cc(C2CC(=O)N(C)c3n[nH]cc32)ccc1OCc1ccccc1C(F)(F)F (stereo not shown) [Example 86, 4-(3-methoxy-4-{[2-(trifluoromethyl)phenyl]methoxy}phenyl)-7-methyl-2H,4H,5H,6H,7H-pyrazolo[3,4-b]pyridin-6-one] | 100 to 1000 nM | 
5 | COc1cc(C2CC(=N)Nc3n[nH]cc32)ccc1OCc1ccccc1C(F)(F)F (stereo not shown) [Example 167, 4-(3-methoxy-4-{[2-(trifluoromethyl)phenyl]methoxy}phenyl)-2H,4H,5H,6H, 7H-pyrazolo[3,4-b]pyridin-6-imine] | 100 to 1000 nM | 
6 | COCCOc1cc(C2CC(=O)Nc3n[nH]cc32)ccc1OCc1ccccc1C(F)(F)F (stereo not shown) [Example 164, 4-[3-(2-methoxyethoxy)-4-{[2-(trifluoromethyl)phenyl]methoxy}phenyl]-2H,4H,5H,6H, 7H-pyrazolo[3,4-b]pyridin-6-one] | 10 to 100 nM | 
7 | COc1cc(C2CC(=O)Nc3n[nH]cc32)ccc1COc1ccc(C(F)F)cc1C(F)F (single isomer, unassigned; (-)) [Example 218, (−)-4-(4-{[2,4-bis(difluoromethyl)phenoxy]methyl}-3-methoxyphenyl)-2H,4H,5H,6H,7H-pyrazolo[3,4-b]pyridin-6-one] |  | ≥ 8
8 | COc1cc(-c2cc(=O)[nH]c3n[nH]cc23)ccc1OCc1ccccc1OC(F)F [Example 180, 4-(4-{[2-(difluoromethoxy)phenyl]methoxy}-3-methoxyphenyl)-2H,6H, 7H-pyrazolo[3,4-b]pyridin-6-one] |  | ≥ 8
9 | COc1cc(OCc2ccccc2C(F)(F)F)ccc1C1CC(=O)Nc2n[nH]cc21 (stereo not shown) [Example 64, 4-(2-methoxy-4-{[2-(trifluoromethyl)phenyl]methoxy}phenyl)-2H,4H,5H,6H,7H-pyrazolo[3,4-b]pyridin-6-one] | 10 to 100 nM | 
10 | COc1cc(C2CC(=O)Nc3n[nH]cc32)ccc1OCc1cccc(Br)c1 (stereo not shown) [Example 11, 4-{4-[(3-bromophenyl)methoxy]-3-methoxyphenyl}-2H,4H,5H,6H, 7H-pyrazolo[3,4-b]pyridin-6-one] | 100 to 1000 nM | 
11 | O=C1CC(c2cnc(OCc3ccccc3C(F)(F)F)nc2)c2c[nH]nc2N1 (stereo not shown) [Example 165, 4-(2-{[2-(trifluoromethyl)phenyl]methoxy}pyrimidin-5-yl)-2H,4H,5H,6H, 7H-pyrazolo[3,4-b]pyridin-6-one] | 100 to 1000 nM | 

Second part, the compound after the results:

Row | IC50 | mean pIC50 | Compound
12 | 10 to 100 nM |  | COc1cc(C2CC(=O)Nc3c[nH]cc32)ccc1COc1ccc(C(F)(F)F)cc1C(F)(F)F (stereo not shown) [Example 190, 4-(4-{[2,4-bis(trifluoromethyl)phenoxy]methyl}-3-methoxyphenyl)-1H,2H,3H,4H, 6H-pyrrolo[3,4-b]pyridin-2-one]
13 | 10 to 100 nM |  | COc1cc(C2CC(=O)Nc3n[nH]cc32)ccc1OCc1ccc(C#N)cc1C(F)(F)F (stereo not shown) [Example 105, 4-[(2-methoxy-4-{6-oxo-2H,4H,55H, 6H, 7H-pyrazolo[3,4-b]pyridin-4-yl}phenyl)methoxy]-3-(trifluoromethyl)benzonitrile]
14 | 10 to 100 nM |  | COc1cc(C2CC(=O)Nc3n[nH]cc32)ccc1OCc1cc(C(F)(F)F)ccc1C(F)(F)F (stereo not shown) [Example 14, 4-(4-{[2,5-bis(trifluoromethyl)phenyl]methoxy}-3-methoxyphenyl)-2H,4H,5H,6H, 7H-pyrazolo[3,4-b]pyridin-6-one]
15 | 100 to 1000 nM |  | COc1cc(C2CC(=O)Nc3n[nH]cc32)ccc1OCc1c(F)cccc1C(F)(F)F (stereo not shown) [Example 21, 4-(4-{[2-fluoro-6-(trifluoromethyl)phenyl]methoxy}-3-methoxyphenyl)-2H,4H,5H,6H,7H-pyrazolo[3,4-b]pyridin-6-one]
16 | 100 to 1000 nM |  | COc1cc(C2CC(=O)Nc3n[nH]cc32)ccc1COc1cc(C)cc(C(F)(F)F)c1 (stereo not shown) [Example 114, 4-(3-methoxy-4-{[3-methyl-5-(trifluoromethyl)phenoxy]methyl}phenyl)-2H,4H,5H,6H,7H-pyrazolo[3,4-b]pyridin-6-one]
17 | 10 to 100 nM |  | COc1cc(C2CC(=O)Nc3n[nH]cc32)ccc1OCc1ccc([N+](=O)[O-])cc1C(F)(F)F (stereo not shown) [Example 34, 4-(3-methoxy-4-{[4-nitro-2-(trifluoromethyl)phenyl]methoxy}phenyl)-2H,4H,5H,6H,7H-pyrazolo[3,4-b]pyridin-6-one]
18 |  | ≥ 8 | CNc1ccc(COc2ccc(C3CC(=O)Nc4n[nH]cc43)cc2OC)c(C(F)(F)F)c1 (stereo not shown) [Example 141, 4-(3-methoxy-4-{[4-(methylamino)-2-(trifluoromethyl)phenyl]methoxy}phenyl)-2H,4H,5H,6H,7H-pyrazolo[3,4-b]pyridin-6-one]
19 | 10 to 100 nM |  | COc1cc(C2CC(=O)Nc3ccsc32)ccc1OCc1ccccc1C(F)(F)F (stereo not shown) [Example 85, 7-(3-methoxy-4-{[2-(trifluoromethyl)phenyl]methoxy}phenyl)-4H,5H,6H, 7H-thieno[3,2-b]pyridin-5-one]
20 | 10 to 100 nM |  | COc1ccc(C(F)(F)F)c(COc2ccc(C3CC(=O)Nc4n[nH]cc43)cc2OC)c1 (stereo not shown) [Example 35, 4-(3-methoxy-4-{[5-methoxy-2-(trifluoromethyl)phenyl]methoxy}phenyl)-2H,4H,5H,6H,7H-pyrazolo[3,4-b]pyridin-6-one]
21 |  | ≥ 8 | COC(=O)c1ccc(COc2ccc(C3CC(=O)Nc4n[nH]cc43)cc2OC)c(C(F)(F)F)c1 (stereo not shown) [Example 42, methyl 4-[(2-methoxy-4-{6-oxo-2H,4H,5H,6H,7H-pyrazolo[3,4-b]pyridin-4-yl}phenoxy)methyl]-3-(trifluoromethyl)benzoate]
22 | 10 to 100 nM |  | COc1cc(C2CC(=O)Nc3n[nH]cc32)ccc1COc1ccc(Cl)cc1C(F)(F)F (single isomer, unassigned; (+)) [Example 193, (+)-4-(4-{[4-chloro-2-(trifluoromethyl)phenoxy]methyl}-3-methoxyphenyl)-2H,4H,5H,6H,7H-pyrazolo[3,4-b]pyridin-6-one]
23 | 100 to 1000 nM |  | COc1cc(C2CC(=O)Nc3n[nH]cc32)ccc1OCc1ccc(C(N)=O)cc1C(F)(F)F (stereo not shown) [Example 121, 4-(2-methoxy-4-{6-oxo-2H,4H,5H,6H, 7H-pyrazolo[3,4-b]pyridin-4-yl}phenoxymethyl)-3-(trifluoromethyl)benzamide]
24 | 100 to 1000 nM |  | COc1cc(C2CC(=O)Nc3nn(C)cc32)ccc1OCc1ccccc1C(F)(F)F (stereo not shown) [Example 80, 4-(3-methoxy-4-{[2-(trifluoromethyl)phenyl]methoxy}phenyl)-2-methyl-2H,4H,5H,6H,7H-pyrazolo[3,4-b]pyridin-6-one]
25 | 100 to 1000 nM |  | COc1cc(C2CC(=O)Nc3n[nH]cc32)ccc1COc1ccc(C(F)(F)F)cc1C(F)F (single isomer, unassigned; (+)) [Example 215, (+)-4-(4-{[2-(difluoromethyl)-4-(trifluoromethyl)phenoxy]methyl}-3-methoxyphenyl)-2H,4H,5H,6H,7H-pyrazolo[3,4-b]pyridin-6-one]
